Like-named read-outs stand apart in the source and are kept apart here.
Legend:
sebum production = test: Animal model for inhibition of sebum production (hamster ear, HPLC of sebum lipids); format: in vivo, male Syrian hamsters; conditions: 4 weeks; for Sum CE + WE: sum of CE and WE reductions; for % Reduction in CE / % Reduction in WE: five days a week; for % Reduction in CE: cholesterol ester vs vehicle control; for % Reduction in WE: wax ester vs vehicle control
Method: Animal Model for Inhibition of Sebum Production
Luderschmidt et al describes an animal model for testing whether compounds are capable of modulating sebum secretion. Arch. Derm. Res. 258, 185-191 (1977). This model uses male Syrian hamsters, whose ears contain sebaceous glands. The products of Examples 24, 27 and 28 were screened in this model.
Testing for sebum inhibition was carried out in the following manner. Male Syrian hamsters aged 9 to 10 weeks were introduced into the laboratory environment and acclimated for 2 weeks prior to use in the study. Each group consisted of 5 animals and run in parallel with vehicle and positive controls. Prior to administration, a sufficient quantity each compound was dissolved in 1 mL of a solvent consisting of transcutanol, ethanol, and propylene glycol (20/60/20% v/v) to achieve a final concentration of 0.5 w/v % or 3.0 w/v %.
Animals were dosed topically twice daily, five days a week, for 4 weeks. Each dose consisted of 25 micro liters of vehicle control or drug. The dose was applied to the ventral surfaces of both the right and left ears. All animals were sacrificed approximately 18-24 hours after the final dose. The right ears were collected from each animal and used for sebum analysis.
The ears were prepped for HPLC analysis in the following manner. One 8 mm distal biopsy punch was taken, just above the anatomical “V” mark in the ear to normalize the sample area. The punch was pulled apart. The ventral biopsy surface (the area where the topical dose was directly applied to the sebaceous glands) was retained for testing and the dorsal surface of the biopsy punch was discarded.
Tissue samples were blown with N2 gas and stored at −80° C. under nitrogen until HPLC analysis. In addition to ear samples, an aliquot of each drug and vehicle (at least 250 ul) was also stored at −80° C. for inclusion in the HPLC analysis.
HPLC analysis was carried out on an extract of the tissue sample. Tissue samples were contacted with 3 ml of solvent (a 4:1 admixture of 2,2,4-trimethylpentane and isopropyl alcohol). The mixture was shaken for 15 minutes and stored overnight at room temperature, protected from light. The next morning 1 milliliter of water was added to the sample and shaken for 15 minutes. The sample was then centrifuged at approximately 1500 rpm for 15 minutes. Two ml of the organic phase (top layer) was transferred to a glass vial, dried at 37° C., under nitrogen, for approximately 1 hour, and then lyophilized for approximately 48 hours. The samples were then removed from the lyophilizer and each vial was reconstituted with 600 μl of solvent A (trimethylpentane/tetrahydrofuran (99:1). The samples were then recapped and vortexed for 5 minutes.
200 μl of each sample was then transferred to a pre-labeled 200 μl HPLC vial with 200 μL glass inserts. The HPLC vials were placed in the autosampler tray for the Agilent 1100 series HPLC unit. The Agilent 1100 HPLC system consisted of a thermostated autosampler, a quarternary pump, a column heater, and an A/D interface module. All components were controlled by Agilent ChemStation software. A Waters Spherisorb S3W 4.6×100 mm analytical column was maintained at 30° C. by the Agilent column heater unit. The HPLC autosampler was programmed to maintain the sample temperature at 20 C throughout the run.
10 uL of each sample was injected in triplicate into the column. Two solvents were used for the solvent gradient. Solvent A was an admixture of trimethylpentane and tetrahydrofuran (99:1). Solvent B was ethylacetate. The gradient utilized is described in the table below: […]
The Sedex 75 Evaporative Light Scattering Detector (ELSD) was operated at 45° C. with a gain of 5, and N2 pressure maintained at 3.1 bar. Analog signal obtained by the instrument was sent to the Agilent A/D interface module where it was converted to a digital output. The conversion was based on a 10000 mAU/volt set point and the data rate was set at 10 Hz (0.03 min). […]

[1] = target: T1, hAR (human androgen receptor) (Homo sapiens, UniProt P10275); test: Competitive binding analysis on hAR extracts with 3H-DHT tracer
T1 construct: made in house; host or cells: baculovirus/Sf9 insect cells (extract)
T1 sequence (P10275 1-920): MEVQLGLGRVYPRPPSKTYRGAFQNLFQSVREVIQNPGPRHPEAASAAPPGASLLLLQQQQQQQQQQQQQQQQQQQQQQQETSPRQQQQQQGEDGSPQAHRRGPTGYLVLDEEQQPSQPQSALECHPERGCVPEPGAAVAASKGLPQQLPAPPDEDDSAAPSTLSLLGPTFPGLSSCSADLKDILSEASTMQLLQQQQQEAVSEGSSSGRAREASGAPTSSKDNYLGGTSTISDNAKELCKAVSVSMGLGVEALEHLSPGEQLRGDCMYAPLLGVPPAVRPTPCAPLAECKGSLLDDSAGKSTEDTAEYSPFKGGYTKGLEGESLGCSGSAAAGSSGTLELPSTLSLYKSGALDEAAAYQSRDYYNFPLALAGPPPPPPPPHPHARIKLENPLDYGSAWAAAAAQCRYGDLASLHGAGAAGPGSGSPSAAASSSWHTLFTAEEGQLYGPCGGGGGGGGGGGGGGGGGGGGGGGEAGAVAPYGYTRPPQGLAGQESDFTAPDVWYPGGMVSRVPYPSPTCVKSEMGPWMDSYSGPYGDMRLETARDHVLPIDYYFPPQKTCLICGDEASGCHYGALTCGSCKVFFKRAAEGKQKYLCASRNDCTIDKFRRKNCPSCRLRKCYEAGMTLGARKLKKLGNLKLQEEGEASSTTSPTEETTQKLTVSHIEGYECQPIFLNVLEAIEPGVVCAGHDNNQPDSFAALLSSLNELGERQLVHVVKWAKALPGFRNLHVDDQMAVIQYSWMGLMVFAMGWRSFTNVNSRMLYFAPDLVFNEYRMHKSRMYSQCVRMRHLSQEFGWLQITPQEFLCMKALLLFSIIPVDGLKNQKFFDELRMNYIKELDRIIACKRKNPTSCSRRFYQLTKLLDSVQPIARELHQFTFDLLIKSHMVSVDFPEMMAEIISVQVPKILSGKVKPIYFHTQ
Method: The compounds of Formula I have affinity for the androgen receptor. […] The description below describes how the assay was carried out.
Competitive binding analysis was performed on baculovirus/Sf9 generated hAR extracts in the presence or absence of different concentrations of test agent and a fixed concentration of ^3H-dihydrotestosterone (^3H-DHT) as tracer. This binding assay method is a modification of a protocol previously described (Liao S., et. al. J. Steroid Biochem. 20:11-17 1984). Briefly, progressively decreasing concentrations of compounds are incubated in the presence of hAR extract (Chang et al. P.N.A.S. Vol. 89, pp. […], 1992), hydroxylapatite, and 1 nM ^3H-DHT for one hour at 4° C. Subsequently, the binding reactions are washed three times to completely remove excess unbound ^3H-DHT. hAR bound ^3H-DHT levels are determined in the presence of compounds (i.e. competitive binding) and compared to levels bound when no competitor is present (i.e. maximum binding). Compound binding affinity to the hAR is expressed as the concentration of compound at which one half of the maximum binding is inhibited. Table II below provides the results that were obtained for selected compounds (reported data is the mean of multiple tests as shown below)

[2] = 0.5 w/v % topical twice daily, negative = increase in sebum

| SMILES | Sum CE + WE (sebum production; 0.5 w/v % topical twice daily) | % Reduction in CE (sebum production; [2]) | % Reduction in WE (sebum production; [2]) | IC50 ([1]; baculovirus/Sf9 hAR extract, 1 nM 3H-DHT, one hour at 4° C, mean of multiple tests, read-out: AR Binding IC50) | Sum CE + WE (sebum production; 3 w/v % topical twice daily) | % Reduction in CE (sebum production; 3 w/v % topical twice daily) | % Reduction in WE (sebum production; 3 w/v % topical twice daily) | IC50 [1] |
| --- | --- | --- | --- | --- | --- | --- | --- | --- |
| N#Cc1ccc(OCCCCCOc2ccc(C#N)c(C(F)(F)F)c2)cc1C(F)(F)F [Example 24] | −74 | −33% | −41% | 128 nM | – | – | – | – |
| COCC(COc1ccccc1)Oc1ccc(C#N)c(C(F)(F)F)c1 (stereo not drawn) [Example 27, 4-(1-Methoxymethyl-2-phenoxy-ethoxy)-2-trifluoromethyl-benzonitrile] | – | – | – | – | 147 | 63% | 84% | 5 nM |
| N#Cc1ccc(OC(CO)COc2ccccc2)cc1C(F)(F)F (stereo not drawn) [Example 28, 4-(1-Hydroxymethyl-2-phenoxy-ethoxy)-2-trifluoromethyl-benzonitrile] | – | – | – | – | 40 | 11% | 19% | 81 nM |

From US7473711B2, “Androgen modulators” (Pfizer Inc., priority 2004, dated 2009)
